Data as given in patent US11208696B2, “Prognostic biomarkers for TTK inhibitor chemotherapy” (NETHERLANDS TRANSLATIONAL RESEARCH CENTER B.V., priority 2015, dated 2021).

How the values were obtained:
HCT116 cells = test: Proliferation assay with isogenic cell line pair: parental HCT116 (S45del/+) and isogenic derivative lacking mutated CTNNB1; format: cell-based, human; conditions: for Δefficacy: difference in maximum percentage effect, isogenic (−/+) versus parental HCT116 (S45del/+), negative = parental more sensitive
[1] = tested on: CTNNB1-mutant cancer cell lines (A427, LS 174T, HCT116, SW48); test: Cell proliferation assays, panel of sixty-six cancer cell lines: CTNNB1-mutant cell lines; format: cell-based, human

Row | IC50 ([1]; Homo sapiens, 120 h, read-out: pIC50 average Mutant (converted)) | Structure (SMILES) | Δefficacy (HCT116 cells) | ΔpIC50 [1] | ΔpIC50 (HCT116 cells)
1 |  | COc1ccc(Oc2cc(NCC3CCOCC3)c3ncc(-c4ccc(C(=O)NC5CC5)c(C)c4)n3n2)c(F)c1F [Example 5, N-cyclopropyl-4-[6-(2,3-difluoro-4-methoxy-phenoxy)-8-(tetrahydropyran-4-ylmethylamino)imidazo[1,2-b]pyridazin-3-yl]-2-methyl-benzamide, reference compound] | −26 |  | 
2 |  | CCc1n[nH]c(CC)c1NC(=O)c1ccn2c1CCc1cnc(Nc3ccc(N4CCN(C)CC4)cc3OC(F)F)nc1-2 [Example 12, N-(3,5-diethyl-1H-pyrazol-4-yl)-2-[2-(difluoromethoxy)-4-(4-methylpiperazin-1-yl)anilino]-5,6-dihydropyrimido[4,5-e]indolizine-7-carboxamide] | −18 |  | 
3 | 11 nM | COc1cc(C(=O)NC2CCOCC2)ccc1Nc1ncc2c(n1)-n1ccc(C(=O)Nc3c(C)cccc3C)c1CC2 [Example 8, N-(2,6-dimethylphenyl)-2-[2-methoxy-4-(tetrahydropyran-4-ylcarbamoyl)anilino]-5,6-dihydropyrimido[4,5-e]indolizine-7-carboxamide] | −11 | −0.57 | −0.29
4 |  | COCC(=O)N1CCN(c2ccc(Nc3ncc4c(n3)-n3ccc(C(=O)Nc5c(C)cccc5C)c3CC4)c(OC)c2)CC1 [Example 17, N-(2,6-dimethylphenyl)-2-[2-methoxy-4-[4-(2-methoxyacetyl)piperazin-1-yl]anilino]-5,6-dihydropyrimido[4,5-e]indolizine-7-carboxamide] | −16 |  | 
